Experimental data from ChEMBL document CHEMBL1148572, “1-((S)-2-aminopropyl)-1H-indazol-6-ol: a potent peripherally acting 5-HT2 receptor agonist with ocular hypotensive activity” (J Med Chem, 2006).

What was measured:
[1] = molecular target: Glutamate [NMDA] receptor (Homo sapiens) (UniProt Q05586+Q12879+Q13224+O15399+O60391+Q14957+Q8TCU5); assay: Inhibition of agonist site of NMDA receptor at 10 uM; assay type: functional
[2] = molecular target: T1, Androgen receptor (Homo sapiens) (UniProt P10275); assay: Inhibition of testosterone receptor at 100 nM
T1 sequence (whole entry): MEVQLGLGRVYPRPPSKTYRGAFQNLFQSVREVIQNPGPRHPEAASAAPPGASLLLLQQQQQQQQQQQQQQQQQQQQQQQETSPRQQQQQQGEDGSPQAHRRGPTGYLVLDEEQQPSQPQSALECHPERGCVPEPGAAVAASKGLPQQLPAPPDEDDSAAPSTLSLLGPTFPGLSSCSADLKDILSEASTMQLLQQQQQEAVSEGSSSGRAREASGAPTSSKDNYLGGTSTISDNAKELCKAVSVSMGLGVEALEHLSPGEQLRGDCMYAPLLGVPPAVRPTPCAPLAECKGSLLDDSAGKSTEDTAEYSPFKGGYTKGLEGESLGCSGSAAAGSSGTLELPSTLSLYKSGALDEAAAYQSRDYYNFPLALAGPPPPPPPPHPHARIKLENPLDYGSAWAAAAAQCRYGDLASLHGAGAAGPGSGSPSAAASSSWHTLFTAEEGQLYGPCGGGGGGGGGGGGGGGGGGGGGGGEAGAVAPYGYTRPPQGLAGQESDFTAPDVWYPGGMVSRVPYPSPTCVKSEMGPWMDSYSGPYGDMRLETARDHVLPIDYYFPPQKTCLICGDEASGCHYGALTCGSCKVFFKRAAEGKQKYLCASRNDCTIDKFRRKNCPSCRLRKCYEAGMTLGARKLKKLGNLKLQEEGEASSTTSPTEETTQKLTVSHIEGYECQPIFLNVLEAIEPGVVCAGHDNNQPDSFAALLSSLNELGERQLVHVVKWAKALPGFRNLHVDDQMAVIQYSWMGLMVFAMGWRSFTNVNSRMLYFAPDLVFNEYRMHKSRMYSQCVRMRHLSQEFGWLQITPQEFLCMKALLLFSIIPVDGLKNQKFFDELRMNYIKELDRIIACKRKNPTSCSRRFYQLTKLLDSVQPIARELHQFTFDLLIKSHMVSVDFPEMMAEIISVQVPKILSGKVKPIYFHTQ

[3] = molecular target: T2, Atrial natriuretic peptide receptor 1 (Homo sapiens) (UniProt P16066); assay: Inhibition of ANP A at 1 nM
T2 sequence (whole entry): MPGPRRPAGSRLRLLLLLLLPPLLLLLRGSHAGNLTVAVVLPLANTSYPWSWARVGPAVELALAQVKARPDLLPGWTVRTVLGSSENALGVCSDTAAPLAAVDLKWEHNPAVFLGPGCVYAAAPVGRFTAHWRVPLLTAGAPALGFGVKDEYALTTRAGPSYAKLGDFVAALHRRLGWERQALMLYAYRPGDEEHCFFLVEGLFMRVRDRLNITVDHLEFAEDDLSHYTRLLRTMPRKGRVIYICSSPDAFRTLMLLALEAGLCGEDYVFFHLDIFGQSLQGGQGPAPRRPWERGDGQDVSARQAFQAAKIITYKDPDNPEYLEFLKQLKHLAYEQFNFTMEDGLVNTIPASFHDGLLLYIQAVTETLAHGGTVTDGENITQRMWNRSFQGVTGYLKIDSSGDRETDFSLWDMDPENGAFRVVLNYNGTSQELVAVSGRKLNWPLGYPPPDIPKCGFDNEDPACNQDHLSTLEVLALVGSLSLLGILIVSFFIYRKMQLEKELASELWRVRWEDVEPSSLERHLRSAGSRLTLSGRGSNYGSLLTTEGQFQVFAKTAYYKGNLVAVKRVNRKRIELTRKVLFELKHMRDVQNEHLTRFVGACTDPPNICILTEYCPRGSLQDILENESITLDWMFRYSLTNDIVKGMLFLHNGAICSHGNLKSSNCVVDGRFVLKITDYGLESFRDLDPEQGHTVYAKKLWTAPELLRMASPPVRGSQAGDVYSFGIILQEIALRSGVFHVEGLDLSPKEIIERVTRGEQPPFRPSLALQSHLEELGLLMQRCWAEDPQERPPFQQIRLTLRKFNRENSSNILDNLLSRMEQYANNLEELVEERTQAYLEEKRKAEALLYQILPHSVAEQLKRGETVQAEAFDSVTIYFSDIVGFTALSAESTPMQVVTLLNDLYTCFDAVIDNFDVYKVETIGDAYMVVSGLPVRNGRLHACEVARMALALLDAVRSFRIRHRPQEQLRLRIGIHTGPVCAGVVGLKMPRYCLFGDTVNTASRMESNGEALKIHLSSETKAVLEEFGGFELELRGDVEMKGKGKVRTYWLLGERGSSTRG

[4] = molecular target: T3, B2 bradykinin receptor (Homo sapiens) (UniProt P30411); assay: Inhibition of bradykinin 2 receptor at 1 nM
T3 sequence (whole entry): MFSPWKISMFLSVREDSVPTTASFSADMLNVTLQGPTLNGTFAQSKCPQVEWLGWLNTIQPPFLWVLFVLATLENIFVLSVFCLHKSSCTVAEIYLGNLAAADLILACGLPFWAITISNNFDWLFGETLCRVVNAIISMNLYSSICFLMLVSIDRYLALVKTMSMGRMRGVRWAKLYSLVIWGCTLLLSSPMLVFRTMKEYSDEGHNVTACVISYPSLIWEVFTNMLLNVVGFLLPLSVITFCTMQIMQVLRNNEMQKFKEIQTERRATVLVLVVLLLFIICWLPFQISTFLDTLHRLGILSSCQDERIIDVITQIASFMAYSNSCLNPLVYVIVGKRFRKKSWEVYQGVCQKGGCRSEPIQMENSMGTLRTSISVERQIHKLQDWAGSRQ

[5] = molecular target: Substance-P receptor (Homo sapiens) (UniProt P25103); assay: Inhibition of neurokinin 1 receptor at 10 uM
Substance-P receptor (Homo sapiens), sequence (P25103 whole entry): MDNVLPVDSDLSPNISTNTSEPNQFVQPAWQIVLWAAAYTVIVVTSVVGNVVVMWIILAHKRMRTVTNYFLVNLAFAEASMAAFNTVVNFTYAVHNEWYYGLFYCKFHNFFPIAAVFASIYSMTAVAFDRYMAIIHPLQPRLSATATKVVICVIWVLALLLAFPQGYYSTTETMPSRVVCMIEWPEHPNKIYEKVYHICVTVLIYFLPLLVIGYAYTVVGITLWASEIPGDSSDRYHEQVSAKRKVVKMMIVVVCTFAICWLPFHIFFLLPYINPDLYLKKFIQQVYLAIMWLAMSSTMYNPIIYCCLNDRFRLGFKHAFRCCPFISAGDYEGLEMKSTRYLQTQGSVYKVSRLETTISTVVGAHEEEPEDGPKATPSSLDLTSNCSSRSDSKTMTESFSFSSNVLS

MDR1 (P-gp) = assay: Permeability from basolateral to apical side of the MDCK cell transfected with human MDR1; assay type: ADME, cell-based
[6] = molecular target: T4, Alpha-2A adrenergic receptor (Homo sapiens, UniProt P08913); assay: Activity at adrenergic alpha-2A receptor expressed in human clonic adenocarcinoma HT29 cell by adenylyl cyclase assay; assay type: functional, cell-based, HT-29
T4 sequence (P08913 whole entry): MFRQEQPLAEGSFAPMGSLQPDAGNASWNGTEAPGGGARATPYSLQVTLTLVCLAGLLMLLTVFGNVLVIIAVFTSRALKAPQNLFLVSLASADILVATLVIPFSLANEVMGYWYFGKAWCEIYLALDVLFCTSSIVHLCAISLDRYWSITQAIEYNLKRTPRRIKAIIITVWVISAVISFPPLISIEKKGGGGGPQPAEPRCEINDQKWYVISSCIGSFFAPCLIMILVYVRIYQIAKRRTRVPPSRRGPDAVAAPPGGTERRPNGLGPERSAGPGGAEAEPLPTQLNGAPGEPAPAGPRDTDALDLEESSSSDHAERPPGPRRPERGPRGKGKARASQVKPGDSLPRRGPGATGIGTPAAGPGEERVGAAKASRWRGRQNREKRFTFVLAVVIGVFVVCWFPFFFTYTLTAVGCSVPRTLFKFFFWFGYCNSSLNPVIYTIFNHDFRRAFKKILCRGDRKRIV

SMILES: C[C@H](N)Cn1ncc2ccc(O)cc21
- inhibition [1]: 9.07%
- inhibition [2]: 0.86%
- inhibition [3]: -5.65%
- inhibition [4]: -6.46%
- inhibition [5]: 33%
- Papp B→A (MDR1 (P-gp)): 8.8 nm/s
- EC50 [6]: > 10 µM
